Laboratory results published in patent US11766442B2, “T-cell lymphoma treatments” (City of Hope, priority 2017, dated 2023).
Read-outs that look alike come from different tables or passages of the source.

Tests used:
HUT78 cells = assay: Cell viability assay using HUT78 cells in a CELLTITER-GLO assay; type: cell-based, human
Protocol: Compound (1) and FK-228 (an anticancer agent used in CTCL) were tested in a cell viability assay using HUT78 cells in a CELLTITER-GLO® assay. […] See, FIG. 1B.
Compound (2) (FIG. 8A) was tested in a cell viability assay using HUT78 cells in a CELLTITER-GLO® assay. To determine IC50 value of Compound (2) against human CTCL HUT78 cells, viability assay was performed using CELLTITER-GLO® Reagent as described by the supplier (Promega, Madison, WI). Briefly, cells (7500/well) were seeded in opaque 96-well plates and exposed to Compound (1) in a dose-dependent manner for 72 h at 37° C. in 5% CO2. After 72 h treatment with compound (1), CELLTITER-GLO® Reagent ([…]) was added to 96-well plates. Viable cells which are metabolically active are directly proportional to the ATP present. Luminescent signals correlate with the amount of ATP present in cells. After 10 min incubation with CELLTITER-GLO® Reagent, luminescence was measured at an integration time of 1 second/well using an automated BMG plate reader. Dimethyl sulfoxide (DMSO) was used as the vehicle control. Each experiment was conducted in triplicate. IC50 values were determined using CalcuSyn software (Biosoft).

[1] = test system: HUT78 CTCL mouse xenograft; assay: HUT78 CTCL mouse xenograft model; type: in vivo; settings: for Drug associated toxicity observed in mice: compound (1) 20 mg/kg gavage, FK-228 2 mg/kg intraperitoneal twice weekly
Protocol: Compound (1) and FK-228 were tested for tumor growth inhibition in CTCL mouse xenograft models. One group of mice was treated with 20 mg/kg of compound (1) using gavage during 3 consecutive days, followed by 3 consecutive days of break. Another group of mice was treated with 2 mg/kg of FK-228 intraperitoneal, twice weekly. Mice with no treatment served as a control. The tumor volume, size, and weight were compared 12 days after the treatments started.

HUT78 CTCL cells [2] = test system: HUT78 CTCL cells
Protocol: Compound (1) was tested in a cell proliferation assay using HUT78 CTCL cells. The cells were treated with 0.3, 1, 3, 10, 30, or 100 nM concentration of compound (1), and then incubated for 48 h or 72 h under the growth conditions. […] Cells cultured in the absence of compound (1) served as a control.

HUT78 CTCL cells [3] = assay: Cell apoptosis assay using HUT78 CTCL cells; type: cell-based, human; settings: incubated 72 h, read-out: IC50, apoptosis induction
Protocol: Compound (1) was tested in a cell apoptosis assay using HUT78 CTCL cells.

HUT78 CTCL cells [4] = assay: Carboxy-fluorescein succinimidyl ester (CFSE) staining cell proliferation assay; type: cell-based, human; settings: 1.0, 10 or 100 nM, incubated 72 h
Protocol: Compound (1) was tested in a carboxy-fluorescein succinimidyl ester (CFSE) stained HUT78 CTCL proliferation assay. HUT78 cells were stained with CFSE dye. The CFSE stained cells were plated into 96-well plates in growth medium. The resulted cells were treated with 1.0, 10, or 100 nM solution of compound (1), and then incubated for 72 h under the growth conditions. After, optical densities were read on a multiwell scanning spectrophotometer at wavelength 488 nm.

SMILES | IC50 (HUT78 cells; Homo sapiens) | Reduction of the tumor size ([1]; 20 mg/kg gavage, 3 consecutive days on, 3 days break, 12 days after treatment start) | Tumor weight inhibition ([1]; 20 mg/kg gavage, 3 consecutive days on, 3 days break, 12 days after treatment start, P<0.001) | Tumor growth inhibition (tumor volume) ([1]; 20 mg/kg gavage, 3 consecutive days on, 3 days break, compared 12 days after treatment start, versus FK-228 regimen and vehicle) | Drug associated toxicity observed in mice [1] | IC50 (HUT78 cells) | IC50 (HUT78 CTCL cells [2]; read-out: IC50, cell proliferation, incubated 48 h) | IC50 (HUT78 CTCL cells [2]; read-out: IC50, cell proliferation, incubated 72 h) | IC50 (HUT78 CTCL cells [3]) | Inhibition of proliferation of CFSE stained HUT78 CTCL cells (HUT78 CTCL cells [4])
C/C=C1\NC(=O)[C@H]2CSSCC/C=C/[C@H](CC(=O)N[C@H](C(C)C)C(=O)N2)OC(=O)[C@H](C(C)C)NC1=O [FK-228, Romidepsin, reference compound] | 6.95 nM |  |  |  |  |  |  |  |  | 
CN1C(=O)[C@@]23C[C@](C)(C#N)[C@H](c4ccc5c(c4)OCO5)N2C(=O)C1(C)S3=S (some centres unmarked) [compound (1)] |  | results in the reduction of the tumor size | 89.8% | results in tumor growth inhibition | no toxicity was observed | 6.61 nM | 75 nM | 10 nM | 19.7 nM | inhibits proliferation of HUT78 CTCL cells
C/C=C1\NC(=O)[C@H]2CSSCC/C=C/[C@H](CC(=O)N[C@H](C(C)C)C(=O)N2)OC(=O)[C@H](C(C)C)NC1=O [romidespin, romidepsin, reference compound] |  |  |  |  | Ascites and diarrhea |  |  |  |  | 
